Test results from PubChem BioAssay (NCI).
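Each compound was tested at five concentrations against cells in 96-well plates for 48 hours. The concentration for full growth arrest is given as TGI.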

Experiments:
Assay in all cases: NCI tumour cell line growth inhibition, 48 h
SF-295 CNS = test system: SF-295 CNS
HOP-62 NSCLC = test system: HOP-62 NSCLC
HCT-116 colon = test system: HCT-116 colon
NCI-H23 lung = test system: NCI-H23 lung
U251 CNS = test system: U251 CNS
SN12C renal = test system: SN12C renal
CCRF-CEM leukemia = test system: CCRF-CEM leukemia
A549 NSCLC = test system: A549 NSCLC
SNB-78 CNS = test system: SNB-78 CNS
A498 renal = test system: A498 renal
DLD-1 colon = test system: DLD-1 colon
OVCAR-5 ovarian = test system: OVCAR-5 ovarian
SK-MEL-5 melanoma = test system: SK-MEL-5 melanoma
XF 498 CNS = test system: XF 498 CNS
M19-MEL melanoma = test system: M19-MEL melanoma
SK-OV-3 ovarian = test system: SK-OV-3 ovarian
RXF 393 renal = test system: RXF 393 renal
NCI-H460 lung = test system: NCI-H460 lung
LOX IMVI melanoma = test system: LOX IMVI melanoma
SNB-19 CNS = test system: SNB-19 CNS
RPMI-8226 leukemia = test system: RPMI-8226 leukemia
K-562 leukemia = test system: K-562 leukemia
SW-620 colon = test system: SW-620 colon
P388 leukemia = test system: P388 leukemia
HCC-2998 colon = test system: HCC-2998 colon
NCI-H522 lung = test system: NCI-H522 lung
EKVX NSCLC = test system: EKVX NSCLC
HOP-18 NSCLC = test system: HOP-18 NSCLC
OVCAR-8 ovarian = test system: OVCAR-8 ovarian
NCI/ADR-RES ovarian = test system: NCI/ADR-RES ovarian
MOLT-4 leukemia = test system: MOLT-4 leukemia
HOP-92 NSCLC = test system: HOP-92 NSCLC
SF-268 CNS = test system: SF-268 CNS
COLO 205 colon = test system: COLO 205 colon
SN12K1 renal = test system: SN12K1 renal
UO-31 renal = test system: UO-31 renal
HT29 colon = test system: HT29 colon
SK-MEL-28 melanoma = test system: SK-MEL-28 melanoma
DMS 114 small cell lung = test system: DMS 114 small cell lung
OVCAR-4 ovarian = test system: OVCAR-4 ovarian
NCI-H226 lung = test system: NCI-H226 lung
DMS 273 small cell lung = test system: DMS 273 small cell lung
SNB-75 CNS = test system: SNB-75 CNS
UACC-257 melanoma = test system: UACC-257 melanoma
HCT-15 colon = test system: HCT-15 colon
OVCAR-3 ovarian = test system: OVCAR-3 ovarian
IGROV1 ovarian = test system: IGROV1 ovarian
SF-539 CNS = test system: SF-539 CNS
KM20L2 colon = test system: KM20L2 colon
MALME-3M melanoma = test system: MALME-3M melanoma
UACC-62 melanoma = test system: UACC-62 melanoma
MCF7 breast = test system: MCF7 breast
HL-60(TB) leukemia = test system: HL-60(TB) leukemia
KM12 colon = test system: KM12 colon
SK-MEL-2 melanoma = test system: SK-MEL-2 melanoma
CAKI-1 renal = test system: CAKI-1 renal
P388/ADR leukemia = test system: P388/ADR leukemia

## Nc1c(S(=O)(=O)O)cc(S(=O)(=O)O)c2ccc(N=Nc3ccc(/C=C/c4ccc(N=Nc5ccc6c(S(=O)(=O)O)cc(S(=O)(=O)O)c(N)c6c5O)cc4S(=O)(=O)O)c(S(=O)(=O)O)c3)c(O)c12
SF-295 CNS
  TGI: > 100 µM
HOP-62 NSCLC
  TGI: > 100 µM
HCT-116 colon
  TGI: > 100 µM
NCI-H23 lung
  TGI: > 100 µM
U251 CNS
  TGI: > 100 µM
SN12C renal
  TGI: > 100 µM
CCRF-CEM leukemia
  TGI: > 100 µM
A549 NSCLC
  TGI: > 100 µM
SNB-78 CNS
  TGI: > 100 µM
A498 renal
  TGI: > 100 µM
DLD-1 colon
  TGI: > 100 µM
OVCAR-5 ovarian
  TGI: > 100 µM
SK-MEL-5 melanoma
  TGI: > 100 µM
XF 498 CNS
  TGI: > 92.9 µM
M19-MEL melanoma
  TGI: > 100 µM
SK-OV-3 ovarian
  TGI: > 100 µM
RXF 393 renal
  TGI: > 100 µM
NCI-H460 lung
  TGI: > 100 µM
LOX IMVI melanoma
  TGI: > 100 µM
SNB-19 CNS
  TGI: > 100 µM
RPMI-8226 leukemia
  TGI: > 100 µM
K-562 leukemia
  TGI: > 100 µM
SW-620 colon
  TGI: > 100 µM
P388 leukemia
  TGI: > 100 µM
HCC-2998 colon
  TGI: > 100 µM
NCI-H522 lung
  TGI: > 100 µM
EKVX NSCLC
  TGI: > 100 µM
HOP-18 NSCLC
  TGI: > 100 µM
OVCAR-8 ovarian
  TGI: > 100 µM
NCI/ADR-RES ovarian
  TGI: > 100 µM
MOLT-4 leukemia
  TGI: > 100 µM
HOP-92 NSCLC
  TGI: > 100 µM
SF-268 CNS
  TGI: > 100 µM
COLO 205 colon
  TGI: > 100 µM
SN12K1 renal
  TGI: > 100 µM
UO-31 renal
  TGI: > 100 µM
HT29 colon
  TGI: > 100 µM
SK-MEL-28 melanoma
  TGI: > 100 µM
DMS 114 small cell lung
  TGI: > 100 µM
OVCAR-4 ovarian
  TGI: > 100 µM
NCI-H226 lung
  TGI: > 100 µM
DMS 273 small cell lung
  TGI: > 100 µM
SNB-75 CNS
  TGI: > 100 µM
UACC-257 melanoma
  TGI: > 100 µM
HCT-15 colon
  TGI: > 100 µM
OVCAR-3 ovarian
  TGI: > 100 µM
IGROV1 ovarian
  TGI: > 100 µM
SF-539 CNS
  TGI: > 100 µM
KM20L2 colon
  TGI: > 100 µM
MALME-3M melanoma
  TGI: > 100 µM
UACC-62 melanoma
  TGI: > 100 µM
MCF7 breast
  TGI: > 100 µM
HL-60(TB) leukemia
  TGI: > 100 µM
KM12 colon
  TGI: > 100 µM
SK-MEL-2 melanoma
  TGI: > 100 µM

## N/C(=N\N=C\c1ncccc1O)NO
SF-295 CNS
  TGI: > 77.8 µM
HOP-62 NSCLC
  TGI: > 93 µM
HCT-116 colon
  TGI: > 100 µM
NCI-H23 lung
  TGI: > 100 µM
U251 CNS
  TGI: > 100 µM
SN12C renal
  TGI: > 100 µM
CCRF-CEM leukemia
  TGI: > 47.6 µM
A549 NSCLC
  TGI: > 100 µM
SNB-78 CNS
  TGI: > 100 µM
A498 renal
  TGI: > 100 µM
DLD-1 colon
  TGI: > 100 µM
OVCAR-5 ovarian
  TGI: > 100 µM
SK-MEL-5 melanoma
  TGI: > 31.6 µM
XF 498 CNS
  TGI: 69.2 µM
M19-MEL melanoma
  TGI: > 78.6 µM
SK-OV-3 ovarian
  TGI: > 84.1 µM
RXF 393 renal
  TGI: > 100 µM
NCI-H460 lung
  TGI: > 100 µM
LOX IMVI melanoma
  TGI: > 100 µM
SNB-19 CNS
  TGI: 98.9 µM
RPMI-8226 leukemia
  TGI: > 100 µM
K-562 leukemia
  TGI: > 60.7 µM
SW-620 colon
  TGI: > 100 µM
P388 leukemia
  TGI: 12.8 µM
HCC-2998 colon
  TGI: > 100 µM
NCI-H522 lung
  TGI: 87.9 µM
EKVX NSCLC
  TGI: > 100 µM
HOP-18 NSCLC
  TGI: > 100 µM
OVCAR-8 ovarian
  TGI: > 100 µM
NCI/ADR-RES ovarian
  TGI: > 85.5 µM
MOLT-4 leukemia
  TGI: > 64.4 µM
HOP-92 NSCLC
  TGI: > 100 µM
CAKI-1 renal
  TGI: 96.8 µM
SF-268 CNS
  TGI: 90.8 µM
COLO 205 colon
  TGI: > 39.8 µM
SN12K1 renal
  TGI: > 69 µM
UO-31 renal
  TGI: > 86.2 µM
HT29 colon
  TGI: > 100 µM
SK-MEL-28 melanoma
  TGI: > 100 µM
DMS 114 small cell lung
  TGI: > 100 µM
OVCAR-4 ovarian
  TGI: > 100 µM
NCI-H226 lung
  TGI: 58.1 µM
DMS 273 small cell lung
  TGI: > 59.4 µM
SNB-75 CNS
  TGI: > 62.6 µM
UACC-257 melanoma
  TGI: > 100 µM
HCT-15 colon
  TGI: > 100 µM
OVCAR-3 ovarian
  TGI: > 100 µM
IGROV1 ovarian
  TGI: > 100 µM
SF-539 CNS
  TGI: 59.1 µM
KM20L2 colon
  TGI: > 100 µM
MALME-3M melanoma
  TGI: > 100 µM
P388/ADR leukemia
  TGI: 11.5 µM
UACC-62 melanoma
  TGI: 43 µM
MCF7 breast
  TGI: > 100 µM
HL-60(TB) leukemia
  TGI: > 26.5 µM
KM12 colon
  TGI: > 100 µM
SK-MEL-2 melanoma
  TGI: > 100 µM
